Source: patent US7201896B1, “IL6RIL6 chimera for the treatment of neurodegenerative diseases” (Yeda Research and Development Company Ltd., priority 1999, dated 2007)

How the values were obtained:
[1] = test system: hippocampal organotypic slices; assay: NMDA-induced cell death in hippocampal organotypic slices, propidium iodide; assay type: cell-based, rat; conditions: 0.1 ng/ml
Protocol: The cultures were prepared as previously described by Bahr et al. (Bahr 1995) with minor modifications. Hippocampi were dissected out from eight day old Wistar rats and 400 μm thick slices were laid down on a porous and transparent Millicell-CM membrane (Millipore) and cultured in 6 wells multiwell plates. Four slices were placed on each membrane. Culture medium consisted of 50% minimal essential medium (+25 mM HEPES, +4 mM NaHCO3+NaOH pH 7.2), 25% horse serum and 25% Hanks' solution, glucose (6.4 g/l), penicillin/streptomycin (10 ml/l), L-glutamine (2 mM). Cultures were kept in a 5% CO2 incubator set at a temperature of 37° C. for at least 3 weeks before being used. Medium was changed every week.
Hippocampal slices were exposed to IL6 or to the IL6 chimera at concentrations ranging […] for 15 min, thereafter NMDA 50 μM was added for additional 30 min. […] NMDA-induced cell death was evaluated either 1 or 3–7 days after the experimental injury by incubating cultures for 1 hour in fresh medium containing propidium iodide (PI 5 μl/ml). […] The emitted red fluorescence (marker of cell death) was examined using an inverted fluorescence microscope (Zeiss) associated with an intensified charged-coupled device camera. Quantification of total fluorescence was performed by an image analysis system (Image Pro Plus).

[2] = test system: rat cerebellar granule cells; assay: Glutamate-induced neurotoxicity in primary cerebellar granule cells; assay type: cell-based; conditions: 0.1 to 10 ng/ml; glutamate 50 μM
Protocol: Activation of glutamate ionotropic receptors represents the primary event in the neurotoxicity process triggered by excitatory amino acids. Primary cultures of new born rat cerebella neurons (which contain >97% neurons) were employed for studying the effects of the IL6 chimera on glutamate-induced neurotoxicity and compared to the effects of IL-6.
Primary cultures of cerebellar granule cells were prepared from 8 day-old Sprague-Dawley rat pups as previously described (Pizzi et al. 1993). Cells were plated onto poly-L-Lysine-coated dishes and cultured in basal Eagle's medium containing 10% heat-inactivated foetal bovine serum, glutamine (2 mM), gentamicin (50 μg/ml), and KCl (25 mM), at a density of 2.5×10^5 cells/cm^2. Cytosine Arabinoside (10 μM) was added to the cultures 18 h after seeding to prevent non neuronal cell proliferation. Experiments were carried out after culturing the neurons for 10 days.
Unless otherwise indicated, cultures were exposed for 15 min to 50 μM glutamate in a Mg^2+-free Locke's solution. IL6 or the IL6 chimera were added 5 min before glutamate treatment. Dishes were then returned to cultured conditioned medium at 37° C. in 95% air/5% CO2 and cell viability was measured 18–24 hours later.
Cell viability was evaluated 18 h later by intravital staining with fluorescein diaceate and propidium iodide mixture, as previously described (Pizzi et al. 1993). […]

[3] = test system: dorsal root ganglia (DRG) explants, embryonic Schwann cells; assay: Embryonic dorsal root ganglia (DRG) explant cultures: microscopy, scanning EM, anti-MBP staining; assay type: cell-based, mouse; conditions: IL6RIL6 3 μg/ml, NGF 40 ng/ml
Protocol: In the spinal cord, the dorsal root comprises essentially sensory neurons, which form synapses in the dorsal root ganglia (DRG). During mouse embryogenesis (at day e14–e15), DRGs are a convenient source of neurons and of embryonic Schwann cells which have not yet differentiated into myelinating SC. Procedures to obtain explants of DRGs for in vitro cultures are described by Li (1998). The cultures were performed on glass coverslips placed in the wells of Costar plates, in medium F12/DMEM (Gibco). The coverslips were coated either with collagen or with poly-D-lysine, with essentially similar results. Cultures were either done in medium without growth factor or cytokine additions or in medium supplemented with nerve growth factor (NGF, 40 ng/ml), or in medium supplemented with IL6RIL6 chimeric recombinant proteins (3 μg/ml). The cultures were examined daily by light microscopy with an Olympus inverted microscope linked to a video-camera imaging system (Leica LIDA system). Part of the coverslips were fixed in paraformaldehyde and MBP proteins were labeled with monoclonal primary antibodies to myelin basic proteins and fluorescein-conjugated secondary antibody. Neuronal cell bodies and axons were stained with antibodies to neurofilament protein. Some of the coverslips were examined by scanning electron microscopy (EM).

[4] = test system: Rat sciatic nerve Schwann cell lines cells with murine DRG neurons; assay: Co-culture of DRG neuronal cells with fluorogold-labeled Schwann cells; assay type: cell-based
Source text: By culturing murine DRG in the presence of DNA synthesis inhibitors arabinoseC (AraC) and fluorodeoxyuridine (FudR), neuronal cells can develop axons while glial cell proliferation is inhibited. These DRG cultures can be used as a source of neuronal cells with non-myelinated axons. Schwann cells are exogenously added to these cultures to study the interaction between neurons and Schwann cells.
Rat sciatic nerve Schwann cell lines cells were labeled with fluorogold, a label that penetrates the cell membrane lipid bi-layer and is maintained for an extensive period of time without affecting cell function. […] This system allows to study the various steps in the myelination process which are affected by the IL-6 chimera.

| Substance | neuronal cells protected from NMDA-induced cell death ([1]; after one day, NMDA 50 μM) | cells protected from NMDA-induced cell death ([1]; day 5) | protection from glutamate-induced neurotoxicity [2] | Staining with anti-MBP [3] | Schwann cells along axons in DRG explant cultures ([3]; after 2 to 5 days) | sheath formation around the axons ([4]; after a few days) | binding of the Schwann cells along the axons ([4]; within 5 hours) |
| --- | --- | --- | --- | --- | --- | --- | --- |
| IL-6: Interleukin-6, cytokine used as comparator | approximately 50% | 30% | no protective effect |  |  |  |  |
| NGF: nerve growth factor |  |  |  | little MBP-specific fluorescence | no Schwann cells were observed along the axons | do not form a sheath | bind much less |
